# Results from patent US10208037B2, “Toll-like receptor-7 and -8 modulatory 1H imidazoquinoline derived compounds” (The University of Kansas, priority 2011, dated 2019).
# pEC50: −log10 of the molar value.
# Target: T1, TLR7 (Homo sapiens, UniProt Q9NYK1)
# T1 construct: expressed in transfected cells; host or cells: HEK293 (HEK-Blue-7 cells)
# T1 sequence (Q9NYK1 27-1049): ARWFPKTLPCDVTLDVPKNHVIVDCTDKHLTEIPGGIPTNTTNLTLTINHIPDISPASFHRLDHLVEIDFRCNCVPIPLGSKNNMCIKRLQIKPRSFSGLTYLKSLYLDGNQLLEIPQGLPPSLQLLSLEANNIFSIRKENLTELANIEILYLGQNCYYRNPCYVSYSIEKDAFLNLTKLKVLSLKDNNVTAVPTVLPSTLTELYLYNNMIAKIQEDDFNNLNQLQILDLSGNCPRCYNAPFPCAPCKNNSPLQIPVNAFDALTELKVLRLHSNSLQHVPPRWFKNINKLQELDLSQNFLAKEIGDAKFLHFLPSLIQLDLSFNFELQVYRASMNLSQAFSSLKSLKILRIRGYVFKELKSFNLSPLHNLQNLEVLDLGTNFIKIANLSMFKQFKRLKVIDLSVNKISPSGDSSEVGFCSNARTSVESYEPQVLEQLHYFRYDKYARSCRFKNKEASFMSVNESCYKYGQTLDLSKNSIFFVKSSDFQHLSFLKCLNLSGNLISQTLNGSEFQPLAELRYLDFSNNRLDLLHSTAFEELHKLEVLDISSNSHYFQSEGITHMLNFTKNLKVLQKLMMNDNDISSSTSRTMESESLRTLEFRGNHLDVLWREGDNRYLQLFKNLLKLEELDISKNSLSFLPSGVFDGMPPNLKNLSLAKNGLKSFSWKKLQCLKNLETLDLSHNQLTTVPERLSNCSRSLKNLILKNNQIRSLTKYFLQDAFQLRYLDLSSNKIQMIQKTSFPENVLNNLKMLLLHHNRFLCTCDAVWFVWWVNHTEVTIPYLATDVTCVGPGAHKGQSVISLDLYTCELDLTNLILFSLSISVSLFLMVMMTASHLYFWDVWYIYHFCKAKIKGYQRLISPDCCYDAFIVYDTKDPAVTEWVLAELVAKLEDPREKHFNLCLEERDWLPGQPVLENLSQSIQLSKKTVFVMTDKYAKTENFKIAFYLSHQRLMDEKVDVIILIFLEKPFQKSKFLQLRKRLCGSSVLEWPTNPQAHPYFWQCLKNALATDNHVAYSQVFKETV
# Experiment: TLR7 reporter gene assay (NF-κB induction, HEK-Blue-7 cells), agonism
# Assay type: cell-based
# Details: not given
# Excerpt: NF-κB induction: The induction of NF-κB was quantified using HEK-Blue-7 cells and HEK-Blue-8 cells as previously described by us.^8,24 HEK293 cells were stably transfected with human TLR7 (or human TLR8), MD2, and secreted alkaline phosphatase (sAP), and were maintained in HEK-Blue™ Selection medium containing zeocin and normocin. Stable expression of secreted alkaline phosphatase (sAP) under control of NF-κB/AP-1 promoters is inducible by the TLR7 (or TLR8) agonists, and extracellular sAP in the supernatant is proportional to NF-κB induction. HEK-Blue cells were incubated at a density of […] in a volume of 80 μL/well, in 384-well, flat-bottomed, cell culture-treated microtiter plates until confluency was achieved, and subsequently graded concentrations of stimuli. sAP was assayed spectrophotometrically using an alkaline phosphatase-specific chromogen (present in HEK-detection medium as supplied by the vendor) at 620 nm.
# The induction of NF-κB was quantified using HEK-Blue-3, HEK-Blue-7 and HEK-Blue-8 cells as previously described by us.^8,24,51 HEK293 cells were stably transfected with human TLR3 (or human TLR7 or human TLR8), MD2, and secreted alkaline phosphatase (sAP), and were maintained in HEK-Blue™ Selection medium containing zeocin and normocin. Stable expression of secreted alkaline phosphatase (sAP) under control of NF-κB/AP-1 promoters is inducible by the TLR3 (or TLR7 or TLR8) agonists, and extracellular sAP in the supernatant is proportional to NF-κB induction. HEK-Blue cells were incubated at a density of ˜10^5 cells/ml in a volume of 80 μl/well, in 384-well, flat-bottomed, cell culture-treated microtiter plates until confluency was achieved, and subsequently graded concentrations of stimuli. sAP was assayed spectrophotometrically using an alkaline phosphatase-specific chromogen (present in HEK-detection medium as supplied by the vendor) at 620 nm.
row,TLR7-agonistic activity (in words),SMILES
1,retain TLR7 agonistic activity,"CCCCc1nc2c(N)nc3ccccc3c2n1Cc1ccc(CNC(=S)Nc2ccc(-c3c4ccc(=[N+](CC)CC)cc-4oc4cc(N(CC)CC)ccc34)c(C(=O)O)c2)cc1 [Compound 27, N-(9-(4-(3-(4-((4-amino-2-butyl-1H-imidazo[4,5-c]quinolin-1-yl)methyl)benzyl)thioureido)-2-carboxyphenyl)-6-(diethylamino)-3H-xanthen-3-ylidene)-N-ethylethanaminium]"
2,inactive,CCCCc1nc2c(N)nc3ccccc3c2n1Cc1cccc2ccccc12 [Compound 6a]
3,retain TLR7 agonistic activity,"CCCCc1nc2c(N)nc3ccccc3c2n1Cc1ccc(CNC(=S)Nc2cccc(-c3c4ccc(=O)cc-4oc4cc(O)ccc34)c2C(=O)O)cc1 [Compound 26, 2-(3-(4-((4-Amino-2-butyl-1H-imidazo [4,5-c]quinolin-1-yl)methyl)benzyl)thioureido)-6-(6-hydroxy-3-oxo-3H-xanthen-9-yl)benzoic Acid]"

# Same assay, conditions: Table 1; ND = not detected; read-out: TLR7 Agonism
row,pEC50,SMILES
1,5.40,"CCCCc1nc2c(N)nc3ccc(NC(=O)CCCCCCC(=O)Nc4ccc5nc(N)c6nc(CCCC)n(Cc7ccc(CN)cc7)c6c5c4)cc3c2n1Cc1ccc(CN)cc1 [Compound 55b, N^1,N^8-bis(4-amino-1-(4-(aminomethyl)benzyl)-2-butyl-1H-imidazo[4,5-c]quinolin-8-yl)octanediamide]"
2,5.85,"CCCCc1nc2c(NCCCCCCCCCCCCNc3nc4ccccc4c4c3nc(CCCC)n4Cc3ccccc3)nc3ccccc3c2n1Cc1ccccc1 [Compound 51d, N^1,N^12-bis(1-benzyl-2-butyl-1H-imidazo[4,5-c]quinolin-4-yl)dodecane-1,12-diamine]"
3,6.62,"CCCCc1nc2c(N)nc3ccccc3c2n1Cc1ccc(CNC(=O)CCCCCCC(=O)NCc2ccc(Cn3c(CCCC)nc4c(N)nc5ccccc5c43)cc2)cc1 [Compound 52b, N^1,N-bis(4-((4-amino-2-butyl-1H-imidazo[4,5-c]quinolin-1-yl)methyl)benzyl)octanediamide]"
4,6.96,"CCCCc1nc2c(N)nc3ccccc3c2n1Cc1ccc(CNC(=O)CCCCC(=O)NCc2ccc(Cn3c(CCCC)nc4c(N)nc5ccccc5c43)cc2)cc1 [Compound 52a, N^1,N^6-bis(4-((4-amino-2-butyl-1H-imidazo[4,5-c]quinolin-1-yl)methyl)benzyl)adipamide]"
5,5.14,"CCCCc1nc2c(N)nc3ccc(NC(=O)CCCCC(=O)Nc4ccc5nc(N)c6nc(CCCC)n(Cc7ccc(CN)cc7)c6c5c4)cc3c2n1Cc1ccc(CN)cc1 [Compound 55a, N^1,N^6-bis(4-amino-1-(4-(aminomethyl)benzyl)-2-butyl-1H-imidazo[4,5-c]quinolin-8-yl) adipamide]"
6,5.69,"CCCCc1nc2c(NCCCCNc3nc4ccccc4c4c3nc(CCCC)n4Cc3ccccc3)nc3ccccc3c2n1Cc1ccccc1 [Compound 51a, N^1,N^4-bis(1-benzyl-2-butyl-1H-imidazo[4,5-c]quinolin-4-yl)butane-1,4-diamine]"
7,6.35,"CCCCc1nc2c(N)nc3ccc(N)cc3c2n1Cc1ccc(CN)cc1 [Compound 54a, 1-(4-(aminomethyl)benzyl)-2-butyl-1H-imidazo[4,5-c]quinoline-4,8-diamine]"
8,6.25,"CCCCc1nc2c(N)nc3ccc([N+](=O)[O-])cc3c2n1Cc1ccc(CN)cc1 [Compound 53a, 1-(4-(aminomethyl)benzyl)-2-butyl-8-nitro-1H-imidazo[4,5-c]quinolin-4-amine]"
9,5.52,"CCCCc1nc2c(NCCCCCCCCCCNc3nc4ccccc4c4c3nc(CCCC)n4Cc3ccccc3)nc3ccccc3c2n1Cc1ccccc1 [Compound 51c, N^1,N^10-bis(1-benzyl-2-butyl-1H-imidazo[4,5-c]quinolin-4-yl)decane-1,10-diamine]"

row,SMILES,pEC50
1,"CCCCc1nc2c(NCCCCCCCCNc3nc4ccccc4c4c3nc(CCCC)n4Cc3ccccc3)nc3ccccc3c2n1Cc1ccccc1 [Compound 51b, N^1,N-bis(1-benzyl-2-butyl-1H-imidazo[4,5-c]quinolin-4-yl)octane-1,8-diamine]",6.25

# Same assay, conditions: read-out: EC50 (agonistic activity)
row,pEC50,SMILES
1,5.66,"CCCCc1nc2c(N)nc3ccccc3c2n1Cc1ccc(CNC(=O)CCN2C(=O)CC(SC[C@@H](NC(=O)CC[C@@H](N)C(=O)OC)C(=O)NCC(=O)OC)C2=O)cc1 (stereo partly drawn) [Compound 30b, (2R)-methyl 2-amino-5-((2S)-3-(1-(3-(4-((4-amino-2-butyl-1H-imidazo[4,5-c]quinolin-1-yl)methyl)benzylamino)-3-oxopropyl)-2,5-dioxopyrrolidin-3-ylthio)-1-(2-methoxy-2-oxoethylamino)-1-oxopropan-2-ylamino)-5-oxopentanoate]"
2,6.57,"CCCCc1nc2c(N)nc3ccccc3c2n1Cc1ccc(CNC(=S)NCC(=O)NCC(=O)NCC(=O)OC)cc1 [Compound 29, Methyl 1-(4-((4-amino-2-butyl-1H-imidazo[4,5-c]quinolin-1-yl)methyl)phenyl)-6,9-dioxo-3-thioxo-2,4,7,10-tetraazadodecan-12-oate]"
3,6.40,"CCCCc1nc2c(N)nc3ccccc3c2n1Cc1ccc(-c2ccccc2)cc1 [Compound 6b, 1-(Biphenyl-4-ylmethyl)-2-butyl-1H-imidazo[4,5-c]quinolin-4-amine]"
